Reference: US6409809B1 (priority 1999, dated 2002)

Test: QUV accelerated weathering exposure test of painted aluminum panels (colour fading, CIE La*b*)
Assay type: physicochemical
Conditions: Study I, 48 weeks; 6 hr UV/6 hr condensation cycles; mildewcide level 2.0 (% as is); phthalocyanine blue acrylic paint
Method: An exposure test was conducted in two studies to determine the effect of weathering (UV exposure and/or condensation) on samples of panels with paints containing chlorothalonil, tetraconazole, and chlorothalonil/tetraconazole blend additives, respectively. The panels were aluminum having a 3003 alloy mill finish. One coating (6 mils thick when wet) of the selected paint was applied to each panel and allowed to air dry for 7 days at ambient temperature. Simulated weathering was performed by exposure of the panels to a QUV accelerated weathering tester providing UVA radiation at a power consumption of 1200 Watts (110 volts, 60 Hz). The exposure was conducted in alternating and repeating 6-hour cycles, one 6-hour cycle being an ultraviolet radiation exposure cycle (conducted at 80° C.), and the other cycle being a condensation cycle wherein the panels are exposed to moisture (conducted at 60°). The results are set forth below in Table I. CIE La*b* System describes a color space wherein ‘a’ is the green(−)/[…] axis. ‘L’ is lightness; ‘C’ is chroma or saturation.

FC(F)C(F)(F)OCC(Cn1cncn1)c1ccc(Cl)cc1Cl (centres unmarked) [TCZ, Tetraconazole]
DC vs. Blank: 1.02 | DL vs. Blank: −2.20
